Among the data in ChEMBL document CHEMBL3797180, “Squaramides with cytotoxic activity against human gastric carcinoma cells HGC-27: synthesis and mechanism of action” (Medchemcomm, 2016) are inhibition, IC50 and Activity values, retold here.

Usually pIC50 stands for the negative decadic logarithm of the IC50, by convention in mol/L.

pIC50: −log10 of the molar value. The source made the active and inactive calls. The rule behind the calls is not given here.

In assay [1] the test system is HeLa. Nature of the assay: Cytotoxicity against human HeLa cells assessed as inhibition of cell viability at 100 uM after 24 hrs by MTT assay. The assay is classed as functional, cell-based. (Tetrazolium assays rely on reduction of a dye to a coloured formazan, in cell work by metabolically active cells.)
Assay [2] relates to HGC-27. In words: Cytotoxicity against HGC27 cells assessed as inhibition of cell viability at 100 uM after 24 hrs by MTT assay. In kind it is functional, cell-based. Particulars: Homo sapiens.
Assay [3] concerns HeLa. In words: Cytotoxicity against human HeLa cells assessed as inhibition of cell viability at 20 uM after 24 hrs by MTT assay. The assay is classed as functional, cell-based.
The subject of assay [4] is HGC-27. In words: Cytotoxicity against HGC27 cells assessed as inhibition of cell viability at 20 uM after 24 hrs by MTT assay. In kind it is functional, cell-based. The note with it: Homo sapiens.
A short description of assay [5]: Cytotoxicity against HGC27 cells after 24 hrs by MTT assay. In kind it is functional, cell-based. Particulars: Homo sapiens, HGC-27, 24 h.
Assay [6] relates to HeLa. Nature of the assay: Cytotoxicity against human HeLa cells after 24 hrs by MTT assay. The assay is classed as functional, cell-based.
The test system of assay [7] is HGC-27. In words: Induction of apoptosis in HGC27 cells assessed as apoptotic cells after 24 hrs by Annexin-V-FITC/propidium iodide staining-based flow cytometry. The note with it: Homo sapiens. The assay is classed as functional, cell-based. (Flow cytometry measures light scatter and fluorescence of single cells or particles in a stream.)
The subject of assay [8] is HGC-27. Nature of the assay: Induction of apoptosis in HGC27 cells assessed as early apoptotic cells at 2 uM after 24 hrs by Annexin-V-FITC/propidium iodide staining-based flow cytometry (reference value: 6.7%). In kind it is functional, Homo sapiens.
Assay [9] relates to HGC-27. Nature of the assay: Induction of apoptosis in HGC27 cells assessed as late apoptotic cells at 2 uM after 24 hrs by Annexin-V-FITC/propidium iodide staining-based flow cytometry (reference value: 6.7%). The assay is classed as functional, Homo sapiens.
The test system of assay [10] is HGC-27. Nature of the assay: Induction of apoptosis in HGC27 cells assessed as necrotic cells at 2 uM after 24 hrs by Annexin-V-FITC/propidium iodide staining-based flow cytometry. In kind it is functional, Homo sapiens.

Turning to `COc1c(Nc2ccc(C(C)(C)C)cc2)c(=O)c1=O`, the inhibition entry with HeLa [1] and in the assay with HGC-27 [2] was “inactive” each time.

In the case of `COc1c(Nc2cc(F)c(F)c(F)c2)c(=O)c1=O`, the inhibition entry in the assay with HeLa [1] and in the assay on HGC-27 [2] was “inactive” in each case.

In the case of `O=c1c(Nc2cc(C(F)(F)F)cc(C(F)(F)F)c2)c(N[C@H]2c3ccccc3C[C@H]2O)c1=O`, the inhibition entry with HeLa [1] and with HGC-27 [2] was “Active” throughout.

Regarding `COc1ccc(Nc2c(OC)c(=O)c2=O)cc1`, the inhibition entry in the assay with HeLa [1] and in the assay on HGC-27 [2] was “inactive” throughout.

Regarding `O=c1c(Nc2ccc3ccccc3c2-c2c(O)ccc3ccccc23)c(N[C@@H]2CCCC[C@H]2N2CCCC2)c1=O`, in the assay on HeLa [3], the inhibition entry was “inactive”. Further, the inhibition result in the assay on HGC-27 [4] was “Active”. Further, the pIC50 in [5] was 4.97; in the assay with HeLa [6] it was less than 4.70.

For `C=CC1CN2CCC1CC2[C@@H](Nc1c(Nc2cc(C(F)(F)F)cc(C(F)(F)F)c2)c(=O)c1=O)c1ccnc2ccc(OC)cc12` (stereo partly drawn), the inhibition entry in the assay on HeLa [1], in the assay with HGC-27 [2], with HeLa [3] and in the assay with HGC-27 [4] was “Active” throughout. The pIC50 in [5] was 5.09; in the assay with HeLa [6], 4.82.

On to `C=CC1CN2CCC1CC2[C@@H](Nc1c(Nc2ccc(C(F)(F)F)cc2)c(=O)c1=O)c1ccnc2ccc(OC)cc12` (stereo partly drawn), for which the inhibition result in the assay with HeLa [1], with HGC-27 [2] and with HGC-27 [4] was “Active” each time. The inhibition result in the assay with HeLa [3] is “inactive”. The figures for the pIC50 (in [5]; in the assay with HeLa [6]) were 4.89 and less than 4.70, respectively.

For the molecule `O=c1c(Nc2cc(C(F)(F)F)cc(C(F)(F)F)c2)c(N[C@@H](CO)Cc2ccccc2)c1=O`, the inhibition result with HeLa [1] and with HGC-27 [2] was “Active” throughout. Also, the inhibition result with HeLa [3] and with HGC-27 [4] was “inactive” throughout.

Regarding `C=CC1CN2CCC1CC2[C@H](Nc1c(NCc2cc(C(F)(F)F)cc(C(F)(F)F)c2)c(=O)c1=O)c1ccnc2ccccc12` (stereo partly drawn), the inhibition entry in the assay on HeLa [1], with HGC-27 [2], in the assay with HeLa [3] and with HGC-27 [4] was “Active” each time. The pIC50 is 5.52 in assay [5] and 4.92 in the assay with HeLa [6].

As to `COc1c(Nc2cc(F)cc(F)c2)c(=O)c1=O`, the inhibition entry in the assay on HeLa [1] and in the assay with HGC-27 [2] was “inactive” in each case.

In the case of `O=c1c(Nc2ccc(C(F)(F)F)cc2)c(N[C@@H]2CCCC[C@H]2N2CCCCC2)c1=O`, the inhibition entry in the assay on HeLa [3] and with HGC-27 [4] was “inactive” in each case.

Consider `Cc1ccc(S(=O)(=O)N[C@@H]2CCCC[C@H]2Nc2c(NCc3cc(C(F)(F)F)cc(C(F)(F)F)c3)c(=O)c2=O)cc1`, for which the inhibition entry in the assay on HeLa [1] and with HGC-27 [2] was “Active” each time. For the same molecule, the inhibition result in the assay on HeLa [3] and in the assay on HGC-27 [4] was “inactive” each time.

`COc1c(Nc2ccc([N+](=O)[O-])cc2)c(=O)c1=O`: the inhibition result in the assay with HeLa [1] and in the assay on HGC-27 [2] was “inactive” each time.

`COc1c(N[C@@H](C)c2cccc3ccccc23)c(=O)c1=O`: the inhibition entry in the assay on HeLa [1] and in the assay with HGC-27 [2] was “inactive” in each case.

As for `C[C@@H](Nc1c(Nc2cc(C(F)(F)F)cc(C(F)(F)F)c2)c(=O)c1=O)c1ccccc1`, the inhibition entry in the assay on HeLa [1] and in the assay with HGC-27 [2] was “Active” each time. In addition, the inhibition entry with HeLa [3] and in the assay with HGC-27 [4] was “inactive” each time.

Take `O=c1c(Nc2cc(F)c(F)c(F)c2)c(N[C@@H]2CCCC[C@H]2N2CCCCC2)c1=O`: the inhibition entry with HeLa [3] and in the assay with HGC-27 [4] was “inactive” each time.

For the molecule `COc1c(N[C@H]2c3ccccc3C[C@H]2O)c(=O)c1=O`, the inhibition entry in the assay on HeLa [1] and with HGC-27 [2] was “inactive” in each case.

Turning to `COc1c(Nc2ccccc2)c(=O)c1=O`, the inhibition result in the assay with HeLa [1] and in the assay on HGC-27 [2] was “inactive” each time.

As to `O=c1c(Nc2cc(F)cc(F)c2)c(N[C@@H](c2ccccc2)C(O)(c2ccccc2)c2ccccc2)c1=O`, the inhibition result in the assay with HeLa [3] is “inactive”. Also, the inhibition result with HGC-27 [4] is “Active”. Further, the pIC50 was 5.47 in [5] and less than 4.70 with HeLa [6].

With `C=CC1CN2CCC1CC2[C@@H](Nc1c(NCc2cc(C(F)(F)F)cc(C(F)(F)F)c2)c(=O)c1=O)c1ccnc2ccc(OC)cc12` (stereo partly drawn), the inhibition result with HeLa [1] and in the assay with HGC-27 [2] was “Active” in each case.

With `O=c1c(Nc2cc(C(F)(F)F)cc(C(F)(F)F)c2)c(N[C@@H]2CCCC[C@H]2N2CCCCC2)c1=O`, the inhibition result in the assay with HeLa [1], in the assay with HGC-27 [2], in the assay on HeLa [3] and in the assay with HGC-27 [4] was “Active” in each case.

With `O=c1c(Nc2ccc(C(F)(F)F)cc2)c(N[C@@H]2CCCC[C@@H]2N2CCCCC2)c1=O`, the inhibition result in the assay on HeLa [3] and with HGC-27 [4] was “inactive” each time.

As to `COc1c(N[C@@H]2CCCC[C@H]2NS(=O)(=O)c2ccc(C)cc2)c(=O)c1=O`, the inhibition result in the assay with HeLa [1] and in the assay on HGC-27 [2] was “inactive” in each case.

As to `C=CC1CN2CCC1CC2[C@@H](Nc1c(Nc2cc(C(F)(F)F)cc(C(F)(F)F)c2)c(=O)c1=O)c1ccnc2ccccc12` (stereo partly drawn), the inhibition entry with HeLa [1], in the assay on HGC-27 [2], with HeLa [3] and in the assay on HGC-27 [4] was “Active” throughout. The pIC50 in assay [5] is 5.09; in the assay on HeLa [6], 4.95.

`C=CC1CN2CCC1CC2[C@@H](Nc1c(Nc2ccc(C(F)(F)F)cc2)c(=O)c1=O)c1ccnc2ccccc12` (stereo partly drawn): the inhibition result in the assay with HeLa [1], with HGC-27 [2], with HeLa [3] and in the assay on HGC-27 [4] was “Active” throughout. Besides, the results for the pIC50 (in [5]; in the assay on HeLa [6]) were 5.34 and 4.97, respectively.

Regarding `CCc1cc(C#N)ccc1Nc1c(OC)c(=O)c1=O`, the inhibition entry in the assay on HeLa [1] and in the assay on HGC-27 [2] was “inactive” in each case.

As to `C[C@H](c1c(Nc2cc(F)cc(F)c2)c(=O)c1=O)c1cccc2ccccc12`, the inhibition entry with HeLa [3] and in the assay on HGC-27 [4] was “Active” in each case.

Consider `COc1ccc(Nc2c(OC)c(=O)c2=O)c(OC)c1`, for which the inhibition entry with HeLa [1] and with HGC-27 [2] was “inactive” in each case.

In the case of `O=c1c(NCc2cc(C(F)(F)F)cc(C(F)(F)F)c2)c(N[C@@H]2CCCC[C@H]2N2CCCCC2)c1=O`, the inhibition entry in the assay with HeLa [1] and with HGC-27 [2] was “Active” each time.

As for `COc1c(Nc2ccc(C(F)(F)F)cc2)c(=O)c1=O`, the inhibition result with HeLa [1] and with HGC-27 [2] was “inactive” in each case.

For `COc1c(N(C)c2ccccc2)c(=O)c1=O`, the inhibition result with HeLa [1] and in the assay on HGC-27 [2] was “inactive” in each case.

`O=c1c(Nc2ccc3ccccc3c2-c2c(O)ccc3ccccc23)c(N[C@@H]2CCCC[C@H]2N2CCCCC2)c1=O`: the inhibition result in the assay with HeLa [3] was “inactive”. Moreover, the inhibition entry in the assay on HGC-27 [4] was “Active”. Also, the pIC50 in assay [5] was 4.95; in the assay with HeLa [6] it was less than 4.70.

In assay [5], `COc1cccc2c1C(=O)c1c(O)c3c(c(O)c1C2=O)C[C@@](O)(C(=O)CO)C[C@@H]3O[C@H]1C[C@H](N)[C@H](O)[C@H](C)O1` [DOXORUBICIN] gave a pIC50 of 4.43. The Activity entry in the assay on HGC-27 [7] was “Dose-dependent effect”; with HGC-27 [8], 3.2%; in the assay on HGC-27 [9] it was 16.7%; in the assay on HGC-27 [10], 32.4%.

On to `COc1c(Nc2cc(OC(C)C)c(Cl)cc2Cl)c(=O)c1=O`, for which the inhibition result with HeLa [1] and in the assay with HGC-27 [2] was “inactive” throughout.

On to `Cc1ccc(S(=O)(=O)N[C@@H]2CCCC[C@H]2Nc2c(Nc3cc(C(F)(F)F)cc(C(F)(F)F)c3)c(=O)c2=O)cc1`, for which the inhibition result with HeLa [1] and in the assay on HGC-27 [2] was “Active” each time. Further, the inhibition entry with HeLa [3] and with HGC-27 [4] was “inactive” in each case.

As for `CN(C)[C@@H]1CCCC[C@H]1Nc1c(Nc2cc(C(F)(F)F)cc(C(F)(F)F)c2)c(=O)c1=O`, the inhibition entry in the assay with HeLa [1] and in the assay with HGC-27 [2] was “Active” each time. Moreover, the inhibition entry with HeLa [3] and with HGC-27 [4] was “inactive” each time.
